# PMC10978946, “Coumarin linked to 2-phenylbenzimidazole derivatives as potent α-glucosidase inhibitors” (Scientific Reports, 2024)
# Read-outs that look alike come from different tables or passages of the source.
# Experiments:
# [1] = biological target: T1, α-Glucosidase (Saccharomyces cerevisiae, EC3.2.1.20) (Saccharomyces cerevisiae, UniProt P53341); test: biochemical; type: biochemical
# T1 construct: purchased Sigma-Aldrich
# Protocol: α-Glucosidase (Saccharomyces cerevisiae, EC3.2.1.20, 20 U/mg) and the substrate, […] (p-NPG) were purchased from Sigma-Aldrich, and the assay was performed exactly according to our previous report[34],[35].
# α-glucosidase [2] = biological target: T2, α-glucosidase (Saccharomyces cerevisiae, UniProt P53341); test: Enzyme kinetic studies (Lineweaver–Burk plot, secondary plot); type: biochemical
# T2 construct: purchased Sigma-Aldrich
# Protocol: A Lineweaver–Burk plot was generated to identify the type of inhibition and Km value was determined from the plot between the reciprocal of the substrate concentration (1/[S]) and reciprocal of enzyme rate (1/V) over various inhibitor concentrations. Experimental Ki value was constructed by secondary plots of the inhibitor concentration [I] versus Km.
# α-glucosidase [3] = conditions: cited from earlier work; for fold more potent than acarbose: literature coumarin derivatives versus acarbose
# yeast α-glucosidase = biological target: yeast α-glucosidase; set-up: method as in PMID 26637946; conditions: compound D and its acarbose control; cited from earlier work
# [4] = supplement sheet IC50 values, unrounded, unit inferred
# T2 sequence (P53341 whole entry): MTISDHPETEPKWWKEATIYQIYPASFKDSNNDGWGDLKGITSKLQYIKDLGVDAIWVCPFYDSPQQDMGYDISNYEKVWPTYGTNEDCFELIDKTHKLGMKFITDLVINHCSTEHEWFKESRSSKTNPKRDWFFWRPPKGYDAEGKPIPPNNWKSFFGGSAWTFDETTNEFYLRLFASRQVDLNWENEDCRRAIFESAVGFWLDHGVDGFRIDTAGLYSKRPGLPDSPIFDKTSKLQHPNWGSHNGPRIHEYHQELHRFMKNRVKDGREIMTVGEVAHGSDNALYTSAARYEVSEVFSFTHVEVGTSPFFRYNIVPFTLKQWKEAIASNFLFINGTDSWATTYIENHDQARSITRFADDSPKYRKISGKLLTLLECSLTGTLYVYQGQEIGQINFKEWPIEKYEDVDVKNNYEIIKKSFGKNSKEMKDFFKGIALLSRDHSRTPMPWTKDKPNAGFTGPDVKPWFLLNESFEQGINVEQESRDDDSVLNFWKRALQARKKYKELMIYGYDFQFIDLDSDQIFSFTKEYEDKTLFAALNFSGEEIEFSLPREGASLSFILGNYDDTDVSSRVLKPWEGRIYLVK
# T1 sequence (P53341 whole entry): as above
Compound,IC50 [1] [µM],"IC50 [1, 4] [µM]",melting point [°C],also measured
"O=C(Oc1ccc2ccc(=O)oc2c1)c1ccc2[nH]c(-c3ccccc3)nc2c1 [Compound 5a, 2-Oxo-2H-chromen-7-yl 2-phenyl-1H-benzo[d]imidazole-5-carboxylate]",50 ± 0.8,50,180 to 183,fold better than acarbose ([1]; ratio of IC50 values versus acarbose): approximately 15 fold
"O=C(Oc1ccc2ccc(=O)oc2c1)c1ccc2[nH]c(-c3ccc(F)cc3)nc2c1 [Compound 5b, 2-Oxo-2H-chromen-7-yl 2-(4-fluorophenyl)-1H-benzo[d]imidazole-5-carboxylate]",30.6 ± 0.4,30.6,195 to 197,–
"O=C(Oc1ccc2ccc(=O)oc2c1)c1ccc2[nH]c(-c3ccc(Cl)cc3)nc2c1 [Compound 5c, 2-Oxo-2H-chromen-7-yl 2-(4-chlorophenyl)-1H-benzo[d]imidazole-5-carboxylate]",26.9 ± 1.1,26.9,180 to 182,–
"O=C(Oc1ccc2ccc(=O)oc2c1)c1ccc2[nH]c(-c3ccc(Br)cc3)nc2c1 [Compound 5d, 2-Oxo-2H-chromen-7-yl 2-(4-bromophenyl)-1H-benzo[d]imidazole-5-carboxylate]",22.9 ± 0.2,23,179 to 181,–
"O=C(Oc1ccc2ccc(=O)oc2c1)c1ccc2[nH]c(-c3ccccc3Cl)nc2c1 [Compound 5e, 2-Oxo-2H-chromen-7-yl 2-(2-chlorophenyl)-1H-benzo[d]imidazole-5-carboxylate]",34.7 ± 0.7,34.7,189 to 191,–
"O=C(Oc1ccc2ccc(=O)oc2c1)c1ccc2[nH]c(-c3cccc(Br)c3)nc2c1 [Compound 5f, 2-Oxo-2H-chromen-7-yl 2-(3-bromophenyl)-1H-benzo[d]imidazole-5-carboxylate]",25.2 ± 0.5,25.2,172 to 174,–
"O=C(Oc1ccc2ccc(=O)oc2c1)c1ccc2[nH]c(-c3ccc(F)cc3F)nc2c1 [Compound 5g, 2-Oxo-2H-chromen-7-yl 2-(2,4-difluorophenyl)-1H-benzo[d]imidazole-5-carboxylate]",46.7 ± 0.2,46.7,201 to 203,–
"O=C(Oc1ccc2ccc(=O)oc2c1)c1ccc2[nH]c(-c3cccc(Cl)c3Cl)nc2c1 [Compound 5h, 2-Oxo-2H-chromen-7-yl 2-(2,3-dichlorophenyl)-1H-benzo[d]imidazole-5-carboxylate]",45.2 ± 0.2,45.3,182 to 184,–
"Cc1ccc(-c2nc3cc(C(=O)Oc4ccc5ccc(=O)oc5c4)ccc3[nH]2)cc1 [Compound 5i, 2-Oxo-2H-chromen-7-yl 2-(p-tolyl)-1H-benzo[d]imidazole-5-carboxylate]",44.9,44.9,193 to 195,–
"COc1ccc(-c2nc3cc(C(=O)Oc4ccc5ccc(=O)oc5c4)ccc3[nH]2)cc1 [Compound 5j, 2-Oxo-2H-chromen-7-yl 2-(4-methoxyphenyl)-1H-benzo[d]imidazole-5-carboxylate]",40.3 ± 0.5,–,169 to 171,–
"O=C(Oc1ccc2ccc(=O)oc2c1)c1ccc2[nH]c(-c3ccccc3O)nc2c1 [Compound 5k, 2-Oxo-2H-chromen-7-yl 2-(2-hydroxyphenyl)-1H-benzo[d]imidazole-5-carboxylate]",10.8 ± 0.1,–,187 to 189,"fold more potent than compound 5d ([1]; IC50 comparison 5k versus 5d): twofold; inhibition pattern (α-glucosidase [2]; Lineweaver–Burk plot, Km increased, Vmax unchanged): competitive inhibition pattern; Ki (α-glucosidase [2]; from plot of Km versus inhibitor concentration, substrate p-nitrophenyl α-D-glucopyranoside 1–16 mM, read-out: inhibition constant (Ki)): 10.4 µM"
"Cc1c(-c2nc3cc(C(=O)Oc4ccc5ccc(=O)oc5c4)ccc3[nH]2)cccc1[N+](=O)[O-] [Compound 5l, 2-Oxo-2H-chromen-7-yl 2-(2-methyl-3-nitrophenyl)-1H-benzo[d]imidazole-5-carboxylate]",119.5 ± 0.1,119,194 to 196,fold decrease of inhibitory activity versus compound 5m ([1]; 3-chloro replaced with 3-nitro): three folds
"Cc1c(Cl)cccc1-c1nc2cc(C(=O)Oc3ccc4ccc(=O)oc4c3)ccc2[nH]1 [Compound 5m, 2-Oxo-2H-chromen-7-yl 2-(3-chloro-2-methylphenyl)-1H-benzo[d]imidazole-5-carboxylate]",40.9 ± 1.1,40.9,182 to 184,–
O=C(N/N=C/c1ccccc1O)c1cc2ccccc2oc1=O [Compound A],–,–,–,"IC50 (α-glucosidase [3]; Fig. 1, compound A and its acarbose control): 1.1 µM; fold more potent than acarbose (α-glucosidase [3]): 35.8 fold"
Cc1ccc(/C=C/C(=O)Oc2cc(=O)oc3ccccc23)cc1 [Compound B],–,–,–,"IC50 (α-glucosidase [3]; Fig. 1, compound B and its ursolic acid control): 13 µM"
C/C(=N\OC(=O)/C=C/c1ccc(Br)cc1)c1cc2ccc(Br)cc2oc1=O [Compound C],–,–,–,"IC50 (α-glucosidase [3]; Fig. 1, compound C and its acarbose control): 2.54 µM; fold more potent than acarbose (α-glucosidase [3]): 252 fold"
Cc1cc2nc(-c3ccc(C(=O)N/N=C/c4cc(O)c(O)c(O)c4)cc3)[nH]c2cc1C [Compound D],–,–,–,IC50 (yeast α-glucosidase): 8.4 µM
COc1ccc(-c2nc3cc(C(=O)N/N=C/c4cccs4)ccc3[nH]2)cc1 [Compound E],–,–,–,"IC50 (α-glucosidase [3]; Fig. 1, compound E and its acarbose control): 60.1 µM"
COc1cc(-c2nc3ccccc3[nH]2)ccc1OCC(=O)Nc1ccc(F)cc1 [Compound F],–,–,–,"IC50 (α-glucosidase [3]; Fig. 1, compound F and its acarbose control): 99.6 µM"
